The source of these data is US5750496A, “Method of controlling cryptosporidium infectons using protease inhibitors” (priority 1996, dated 1998).

Starred links: 1 amine or outer side, 2 acyl side, 3 side chain; linkers in the order of their positions; H or OH if unused. Residues, ends and D or L forms follow the SMILES beside them. *: point of attachment. MeOSuc = COC(=O)CCC(=O)*; CO = O=C([*:1])[*:2]; CH2Cl = ClC*

The subject of one data set is C. parvum. The data set is described as follows: Anticryptosporidial effect in BFTE cell culture inoculated with C. parvum oocysts, parasites enumerated 24 hours post-inoculation. It counts as cell-based, Cryptosporidium parvum (bovine isolate). The conditions noted are these: for Control Percent Survival: 24 hours post-inoculation; for Lowest concentrations with significant reduction (P<0.001) in parasite numbers: concentrations as low as, P<0.001 vs infection control; for Intact (i.e. unexcysted) oocysts in treated BFTE cell monolayers during microscopic enumeration: predominantly associated with concentrations exceeding 100 μg/ml. The protocol:
C. parvum (bovine isolate) oocysts used in this study were originally donated by the U.S. Department of Agriculture, Ames, Iowa. The oocysts were isolated from calf manure, preserved in 2.5% potassium dichromate, and used within 3 months of purification. Oocysts were decontaminated by suspension in 20% (vol/vol) 1.05% sodium hypochlorite on ice for 20 minutes. Oocysts were then washed three times in Hanks' balanced salt solution ("HIBSS") and once in RPMI 1640 (available from Sigma, St. Louis, Mo.). Release of sporozoites was achieved by incubating oocysts in an excystation solution consisting of 0.25% (wt/vol) trypsin (available from Sigma, St. Louis, Mo.) and 0.75% (wt/vol) taurodeoxycholic acid (available from Sigma) in HBSS. The resulting suspension was incubated at 37° C. for 45 minutes and microscopically observed to confirm sporozoite release. Sporozoites were completely separated from intact oocysts and oocyst walls by passage through sterile polycarbonate filters (3 micron pore size, available from Millipore Corp., Bedford, Mass.) twice prior to inoculation of bovine fallopian tube epithelial ("BFTE") cell monolayers.
Primary BFTE cell cultures were prepared from bovine fallopian tubes (FT). Fat was trimmed from the serosal surfaces, mucus was gently squeezed from the lumens, and FT were decontaminated by being submerged in 70% ethanol for 30 seconds. The FT were then transferred to sterile culture petri dishes containing HBSS and washed twice. The BFTE cells were harvested either by flushing the FT with HBSS, using a 10 ml syringe equipped with a mouse feeding needle, or by opening the FT lengthwise with scissors and scraping the mucosal surfaces. The BFTE cells were subsequently washed in HBSS by centrifugation at 200×g (force of gravity) for 10 minutes, planted in 75-cm^2 flasks containing RPMI 1640 and cultured in a 5% CO2 incubator at 37° C. for 72 to 120 hours. When the cell lines reached confluency, they were trypsinized, split, and planted onto cover slips positioned on the bottoms of individual wells in 24-well tissue culture plates. When cells reached 80% confluency, they were inoculated with either 10^5 oocysts or 4×10^5 sporozoites per well. Plates were then maintained at 37° C. in a candle jar environment (17% O2, 3% CO2, 80% N2). Growth medium was changed in each well every 72 hours. In wells inoculated with oocysts, the medium was first changed at 24 hours to remove any unexcysted oocysts.
Coverslips were removed at 5, 24, 48, 72, 96, and 120 hours from the inoculated wells containing monolayers of BFTE cells. The coverslips were washed in RPMI 1640, fixed in 100% methanol for 10 minutes, stained with Giemsa stain for 1 hour, and washed three times with double-distilled water (ddH2 O). Coverslips were then mounted on glass slides and examined under oil immersion (1000X), using bright-field microscopy. Parasites were enumerated by counting all developmental stages of C. parvum present in a single scan (67 fields) through the center of each coverslip. The data were statistically compared for significance, using analysis of variance (Fischer's protected least-significant-difference test using a "[…]" statistical analysis application developed by Abacus Concepts, Inc., Berkeley, Calif.).
The anticryptosporidial potential of the protease inhibitor AAT was evaluated in a BFTE cell culture system inoculated with C. parvum oocysts in accordance with the methods detailed in Example I. […] At 24 hours post-inoculation, the BFTE cells were rinsed with RPMI medium, fixed in methanol, and stained with Giemsa. Parasites were enumerated in cell monolayers by brightfield microscopy. Results, as set out in Table 1, represent the mean number of parasites counted per treatment group expressed as a percent, plus or minus the standard deviation, of the mean number of parasites counted in the infection control group.

In another data set the test system is BFTE cells. As to the kind of experiment: Cytotoxicity for BFTE cells at the concentrations evaluated. It counts as cell-based, bovine. The following applies: at the concentrations evaluated (5-1000 μg/ml). As to the method: Primary BFTE cell cultures were prepared from bovine fallopian tubes (FT). Fat was trimmed from the serosal surfaces, mucus was gently squeezed from the lumens, and FT were decontaminated by being submerged in 70% ethanol for 30 seconds. The FT were then transferred to sterile culture petri dishes containing HBSS and washed twice. The BFTE cells were harvested either by flushing the FT with HBSS, using a 10 ml syringe equipped with a mouse feeding needle, or by opening the FT lengthwise with scissors and scraping the mucosal surfaces. The BFTE cells were subsequently washed in HBSS by centrifugation at 200×g (force of gravity) for 10 minutes, planted in 75-cm^2 flasks containing RPMI 1640 and cultured in a 5% CO2 incubator at 37° C. for 72 to 120 hours. […]
The anticryptosporidial potential of the protease inhibitor AAT was evaluated in a BFTE cell culture system inoculated with C. parvum oocysts in accordance with the methods detailed in Example I. AAT concentrations of 5, 10, 50 100, and 500 micrograms per milliliter ("μg/ml") in RPMI medium were mixed with C. parvum oocysts and used to inoculate BFTE cell monolayers. […] Results, as set out in Table 1, represent the mean number of parasites counted per treatment group expressed as a percent, plus or minus the standard deviation, of the mean number of parasites counted in the infection control group.

[1] abbreviates: 5 μg/ml, mean parasites as percent of infection control +/- SD.
Setting [2] is: 10 μg/ml, mean parasites as percent of infection control +/- SD.
Setting [3] is: 50 μg/ml, mean parasites as percent of infection control +/- SD.
[4] abbreviates: 100 μg/ml, mean parasites as percent of infection control +/- SD.
[5] abbreviates: 500 μg/ml, mean parasites as percent of infection control +/- SD.
Setting [6] is: 1000 μg/ml, mean parasites as percent of infection control +/- SD.

As for `COC(=O)CCC(=O)N[C@@H](C)C(=O)N[C@@H](C)C(=O)N1CCC[C@H]1C(=O)N[C@H](C(=O)CCl)C(C)C` [MAAPVCK, methoxysuccinyl-ala-ala-pro-valine chloromethylketone] (MeOSuc-AAPV-CH2Cl), the “Control Percent Survival” value in the data set with C. parvum (setting [1]) is given as 89.1 +/- 5.4%; in the data set on C. parvum (setting [2]), 64.8 +/- 12.0%; with C. parvum (setting [3]) it was 58.7 +/- 11.2%; with C. parvum (setting [4]) it was 51.9 +/- 4.6%; with C. parvum (setting [5]), 43.4 +/- 6.6%. Besides, the “Number of parasites vs infection control (P<0.01)” value with C. parvum (500 μg/ml) is “significantly reduced”.
Turning to `CC(C)[C@H](NC(=O)[C@H](CCCNC(=N)N)NC(=O)N[C@@H](Cc1ccccc1)C(=O)O)C(=O)N[C@H](C=O)CCCNC(=N)N` [ANTIPAIN, antipain] ({Phe-CO}-Arg-Val-Arg-aldehyde), the “Control Percent Survival” value in the data set with C. parvum (setting [1]) is recorded as 67.7 +/- 7.2%; in the data set on C. parvum (setting [2]), 53.1 +/- 5.8%; with C. parvum (setting [3]), 42.1 +/- 6.1%; in the data set with C. parvum (setting [4]) it was 20.9 +/- 2.2%; in the data set on C. parvum (setting [5]) it was 15.6 +/- 1.4%; in the data set with C. parvum (setting [6]) it was 6.6 +/- 1.4%. Also, in the data set on C. parvum, the “Lowest concentrations with significant reduction (P<0.001) in parasite numbers” value was in the range of 5 to 10 µg/mL. In addition, in the data set with C. parvum, the “Intact (i.e. unexcysted) oocysts in treated BFTE cell monolayers during microscopic enumeration” value (shortened to “Intact (i.e. unexcysted) oocysts”) is on record as “frequently observed”.
For `CC(=O)N[C@@H](CC(C)C)C(=O)N[C@@H](CC(C)C)C(=O)N[C@H](C=O)CCCNC(=N)N` [Leupeptin, leupeptin], the “Control Percent Survival” value is given as 89.1 +/- 5.4% in the data set on C. parvum (setting [1]); 64.8 +/- 12.0% in the data set on C. parvum (setting [2]); 58.7 +/- 11.2% in the data set with C. parvum (setting [3]); 51.9 +/- 4.6% in the data set on C. parvum (setting [4]); 43.4 +/- 6.6% with C. parvum (setting [5]). In addition, the “Number of parasites vs infection control (P<0.01)” value with C. parvum (10 μg/ml and 50 μg/ml) was “significantly reduced”.
Take alpha-1-antitrypsin [AAT]: the “Cytotoxicity for BFTE cells” value with BFTE cells is “no evidence of cytotoxicity”. The “Control Percent Survival” value was 49.1 +/- 3.8% in the data set on C. parvum (setting [1]); 43.9 +/- 4.2% in the data set with C. parvum (setting [2]); 42.7 +/- 1.6% in the data set on C. parvum (setting [3]); 30.4 +/- 1.9% with C. parvum (setting [4]); 14.7 +/- 6.3% with C. parvum (setting [5]); 1.8 +/- 0.4% with C. parvum (setting [6]). Moreover, the “Lowest concentrations with significant reduction (P<0.001) in parasite numbers” value in the data set with C. parvum was 5 to 10 µg/mL. The “Intact (i.e. unexcysted) oocysts” value with C. parvum is on record as “frequently observed”.
In the case of `O=S(=O)(F)Cc1ccccc1` [PMSF, phenylmethylsulfonyl flouride], the “Control Percent Survival” value is 68.9 +/- 5.2% in the data set on C. parvum (1 mM, percent of infection control +/- SD); 55.9 +/- 4.7% in the data set on C. parvum (2 mM, percent of infection control +/- SD); 40.0 +/- 8.3% in the data set with C. parvum (3 mM, percent of infection control +/- SD). Further, in the data set on C. parvum (3 mM, P<0.001), the “Number of parasites vs infection control (P<0.001)” value is reported as “significantly reduced”.
As for aprotinin, the “Control Percent Survival” value with C. parvum (setting [1]) is on record as 83.9 +/- 6.6%; in the data set with C. parvum (setting [2]), 54.2 +/- 6.0%; in the data set with C. parvum (setting [3]) it was 36.1 +/- 4.7%; with C. parvum (setting [4]), 16.8 +/- 5.1%; in the data set on C. parvum (setting [5]), 10.9 +/- 4.7%; in the data set on C. parvum (setting [6]), 9.4 +/- 1.8%. In the data set with C. parvum, the “Lowest concentrations with significant reduction (P<0.001) in parasite numbers” value was in the range of 5 to 10 µg/mL. For the same molecule, in the data set with C. parvum, the “Intact (i.e. unexcysted) oocysts” value is recorded as “frequently observed”.

B1: soybean trypsin inhibitor (protein, UniProt P01070 25-205, looked up)
Trypsin inhibitor A: DFVLDNEGNPLENGGTYYILSDITAFGGIRAAPTGNERCPLTVVQSRNELDKGIGTIISSPYRIRFIAEGHPLSLKFDSFAVIMLCVGIPTEWSVVEDLPEGPAVKIGENKDAMDGWFRLERVSDDEFNNYKLVFCPQQAEDDKCGDIGISIDHDDGTRRLVVSKNKPLVVQFQKLDKESL
On to B1, for which the “Control Percent Survival” value in the data set on C. parvum (setting [1]) is listed as 89.1 +/- 5.4%; in the data set on C. parvum (setting [2]), 64.8 +/- 12.0%; with C. parvum (setting [3]), 58.7 +/- 11.2%; in the data set with C. parvum (setting [4]) it was 51.9 +/- 4.6%; in the data set on C. parvum (setting [5]) it was 43.4 +/- 6.6%. Also, in the data set with C. parvum (50 μg/ml and 100 μg/ml), the “Number of parasites vs infection control (P<0.01)” value is reported as “significantly reduced”.
